Experimental data taken from PubChem BioAssay (NCI).
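Cells were grown in 96-well plates and exposed to each compound for 48 hours at five concentrations; endpoints were interpolated linearly between bracketing concentrations, or set to the highest concentration if not reached. GI50 marks 50% less growth. TGI is the concentration that stops growth completely.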

How the values were obtained:
Experiment in all cases: NCI tumour cell line growth inhibition, 48 h
[1] = test system: NCI/ADR-RES ovarian
[2] = test system: SK-MEL-2 melanoma
[3] = test system: OVCAR-5 ovarian
[4] = test system: HT29 colon
[5] = test system: MCF7 breast
[6] = test system: CAKI-1 renal
[7] = test system: SNB-75 CNS
[8] = test system: SF-539 CNS
[9] = test system: HCC-2998 colon
[10] = test system: HCT-15 colon
[11] = test system: HL-60(TB) leukemia
[12] = test system: U251 CNS
[13] = test system: SK-MEL-28 melanoma
[14] = test system: SF-295 CNS
[15] = test system: RPMI-8226 leukemia
[16] = test system: OVCAR-3 ovarian
[17] = test system: TK-10 renal
[18] = test system: UACC-62 melanoma
[19] = test system: CCRF-CEM leukemia
[20] = test system: HOP-92 NSCLC
[21] = test system: K-562 leukemia
[22] = test system: SR leukemia
[23] = test system: SF-268 CNS
[24] = test system: NCI-H460 lung
[25] = test system: DU-145 prostate
[26] = test system: HCT-116 colon
[27] = test system: A549 NSCLC
[28] = test system: EKVX NSCLC
[29] = test system: LOX IMVI melanoma
[30] = test system: HS 578T breast
[31] = test system: UO-31 renal
[32] = test system: M14 melanoma
[33] = test system: A498 renal
[34] = test system: IGROV1 ovarian
[35] = test system: NCI-H23 lung
[36] = test system: 786-0 renal
[37] = test system: BT-549 breast
[38] = test system: HOP-62 NSCLC
[39] = test system: ACHN renal
[40] = test system: SK-MEL-5 melanoma
[41] = test system: KM12 colon
[42] = test system: COLO 205 colon
[43] = test system: SK-OV-3 ovarian
[44] = test system: UACC-257 melanoma
[45] = test system: SW-620 colon
[46] = test system: PC-3 prostate
[47] = test system: T-47D breast
[48] = test system: OVCAR-8 ovarian
[49] = test system: MDA-MB-231 breast
[50] = test system: SN12C renal
[51] = test system: NCI-H226 lung
[52] = test system: MOLT-4 leukemia
[53] = test system: MDA-MB-435
[54] = test system: RXF 393 renal
[55] = test system: SNB-19 CNS
[56] = test system: MALME-3M melanoma
[57] = test system: NCI-H522 lung
[58] = test system: OVCAR-4 ovarian

O=C(N/N=C\c1ccc([N+](=O)[O-])cc1)c1ccc2nc(-c3ccc(Br)cc3)[nH]c2c1
GI50 [1]: 18500 nM
TGI [1]: > 100000 nM
GI50 [2]: 3990 nM
TGI [2]: 16600 nM
GI50 [3]: 2630 nM
TGI [3]: > 58800 nM
GI50 [4]: 939 nM
TGI [4]: 2680 nM
GI50 [5]: 704 nM
TGI [5]: 2260 nM
GI50 [6]: 1670 nM
TGI [6]: 22600 nM
GI50 [7]: 3790 nM
TGI [7]: 20000 nM
GI50 [8]: 1920 nM
TGI [8]: 7900 nM
GI50 [9]: 1300 nM
TGI [9]: 3960 nM
GI50 [10]: 1220 nM
TGI [10]: 14800 nM
GI50 [11]: 801 nM
TGI [11]: 4960 nM
GI50 [12]: 1110 nM
TGI [12]: 3410 nM
GI50 [13]: 1900 nM
TGI [13]: 11700 nM
GI50 [14]: 1300 nM
TGI [14]: 13400 nM
GI50 [15]: 875 nM
TGI [15]: 2880 nM
GI50 [16]: 3080 nM
TGI [16]: 7950 nM
GI50 [17]: 2960 nM
TGI [17]: 26000 nM
GI50 [18]: 1610 nM
TGI [18]: 14500 nM
GI50 [19]: 1340 nM
TGI [19]: 8010 nM
GI50 [20]: 2580 nM
TGI [20]: 9260 nM
GI50 [21]: 882 nM
TGI [21]: 4180 nM
GI50 [22]: 891 nM
TGI [22]: 4550 nM
GI50 [23]: 3870 nM
TGI [23]: 96900 nM
GI50 [24]: 914 nM
TGI [24]: 2530 nM
GI50 [25]: 1630 nM
TGI [25]: > 54200 nM
GI50 [26]: 1020 nM
TGI [26]: 3680 nM
GI50 [27]: 1610 nM
TGI [27]: > 31200 nM
GI50 [28]: 1810 nM
TGI [28]: 97500 nM
GI50 [29]: 978 nM
TGI [29]: 3140 nM
GI50 [30]: 1590 nM
TGI [30]: 17000 nM
GI50 [31]: 2160 nM
TGI [31]: > 51100 nM
GI50 [32]: 1400 nM
TGI [32]: 6690 nM
GI50 [33]: 1620 nM
TGI [33]: 8340 nM
GI50 [34]: 1610 nM
TGI [34]: 14800 nM
GI50 [35]: 398 nM
TGI [35]: 3160 nM
GI50 [36]: 2920 nM
TGI [36]: 13000 nM
GI50 [37]: 911 nM
TGI [37]: 3400 nM
GI50 [38]: 1900 nM
TGI [38]: 10500 nM
GI50 [39]: 1920 nM
TGI [39]: > 51700 nM
GI50 [40]: 912 nM
TGI [40]: 2880 nM
GI50 [41]: 1200 nM
TGI [41]: 9300 nM
GI50 [42]: 842 nM
TGI [42]: 2100 nM
GI50 [43]: 2900 nM
TGI [43]: > 70700 nM
GI50 [44]: 1260 nM
TGI [44]: 6350 nM
GI50 [45]: 1270 nM
TGI [45]: 4950 nM
GI50 [46]: 1300 nM
TGI [46]: 9400 nM
GI50 [47]: 955 nM
TGI [47]: 3280 nM
GI50 [48]: 979 nM
TGI [48]: 4620 nM
GI50 [49]: 2930 nM
TGI [49]: 12000 nM
GI50 [50]: 1220 nM
TGI [50]: 14100 nM
GI50 [51]: 2580 nM
TGI [51]: > 54700 nM
GI50 [52]: 912 nM
TGI [52]: 4390 nM
GI50 [53]: 1420 nM
TGI [53]: 5060 nM
GI50 [54]: 1130 nM
TGI [54]: 3790 nM
GI50 [55]: 2290 nM
TGI [55]: 39600 nM
GI50 [56]: 1270 nM
TGI [56]: 4630 nM
GI50 [57]: 903 nM
TGI [57]: 2920 nM
GI50 [58]: 1450 nM
TGI [58]: > 43000 nM
